The target of one experiment is PfAcAS WT (Plasmodium falciparum, UniProt C6KTB4). The experiment can be described thus: EnzChek assay, recombinant PfAcAS WT (steady-state kinetics and IC50). It counts as biochemical, P. falciparum. As to the method: (§1) Steady-state kinetic measurements were conducted at room temperature using a PheraStar plate reader (BMG). The first step of the reaction of PfAcAS, which produces inorganic pyrophosphate (PPi) that is converted to two molecules of inorganic phosphate using a pyrophosphatase enzyme, was continuously monitored using the EnzChek Phosphate Assay Kit, which gives an absorbance readout at 360 nm (Figure 4A) ([Webb, 1992]). […] By adding CoA, the reaction rapidly proceeds to the second step resulting in further release of pyrophosphate, making the EnzChek assay a suitable option to continuously monitor the activity of PfAcAS. Typical kinetic assays were carried out in clear, flat-bottom, polystyrene, 384-well plates (Greiner) in an 80 μL reaction volume containing 100 mM HEPES (pH7.4), 100 mM NaCl, 250 mM KCl, 50 mM MgCl2, 1 mM DTT, 0.004% Tween 20, 0.5 U/mL pyrophosphatase, 0.1 mM MESG, 0.5 U/mL PNP, 2 mM ATP, 2 mM acetate, 0.5 mM CoA and 5 nM recombinant PfAcAS WT or 10 nM recombinant PfAcAS A597V or T648M. Assays were performed by adding 40 μL of a 2-times concentrated substrate mixture including MESG to all wells, and the reactions started by adding 40 μL of a 2-times concentrated reaction mixture containing all other components. The reactions were carried out for 2 to 4 hr with absorbance readings at 360 nm every two to four minutes. Reaction rates were extracted from the linear phase of activity, usually using 10 to 20 points between times of 30 and 100 min of the reactions. Using a phosphate standard curve obtained under the same buffer conditions used for the PfAcAS reactions (Figure S5A), the rates were then converted to velocity per second, conversion of one nanomolar of phosphate, per nanomolar of enzyme, per second. The substrates Km values were determined by varying the concentration of one of the substrates at saturating concentration of the other two substrates. Steady-state data were fitted using the nonlinear, least-squares, curve-fitting programs of Sigma-Plot for Windows, version 14.0. Individual saturation curves were fit to Equation 1(Equation 1) v=VS/K+S where V is the maximal velocity, S is the substrate concentration and K is the Michaelis constant for the substrate (Km). Individual saturation curves displaying substrate inhibition were fit to Equation 2(Equation 2) v=VS/K+S×(1+S/Ks) where Ks is the substrate inhibition constant.
(§2) To determine the steady-state inhibition parameters and patterns associated with both inhibitors, PfAcAS activity was studied in the presence of variable concentrations of one substrate, ATP, acetate or CoA, fixed saturating concentration of the other two substrates (acetate and CoA, ATP and CoA, or ATP and acetate) and several fixed concentrations of inhibitor. Assay ready plates containing different concentrations of inhibitor were prepared using an Echo 550 acoustic dispenser (Labcyte Inc.). The assays were carried out as described in the previous section. […] For better comparison between both inhibitors and proteins, the ymin was fixed to zero and the ymax to 100. Inhibition data showing linear, competitive patterns in double-reciprocal plots were fit to Equation 4(Equation 4) v=VS/K(1+I/Ki)+S where Ki is the dissociation constant for the enzyme-inhibitor complex. Inhibition data showing linear, mixed inhibition patterns in double-reciprocal plots were fit to Equation 5(Equation 5) v=VS/K(1+I/Kis)+S(1+I/Kii) where Kis is the dissociation constant for the free enzyme-inhibitor complex and Kii is the dissociation constant for the enzyme-substrate-inhibitor complex. Inhibition data showing linear, uncompetitive patterns in double-reciprocal plots were fit to Equation 6(Equation 6) v=VS/K+S(1+I/Ki)

The next experiment addresses T1, PfAcAS A597V (Plasmodium falciparum, UniProt C6KTB4, A597V).
T1 sequence (C6KTB4 1-997 A597V): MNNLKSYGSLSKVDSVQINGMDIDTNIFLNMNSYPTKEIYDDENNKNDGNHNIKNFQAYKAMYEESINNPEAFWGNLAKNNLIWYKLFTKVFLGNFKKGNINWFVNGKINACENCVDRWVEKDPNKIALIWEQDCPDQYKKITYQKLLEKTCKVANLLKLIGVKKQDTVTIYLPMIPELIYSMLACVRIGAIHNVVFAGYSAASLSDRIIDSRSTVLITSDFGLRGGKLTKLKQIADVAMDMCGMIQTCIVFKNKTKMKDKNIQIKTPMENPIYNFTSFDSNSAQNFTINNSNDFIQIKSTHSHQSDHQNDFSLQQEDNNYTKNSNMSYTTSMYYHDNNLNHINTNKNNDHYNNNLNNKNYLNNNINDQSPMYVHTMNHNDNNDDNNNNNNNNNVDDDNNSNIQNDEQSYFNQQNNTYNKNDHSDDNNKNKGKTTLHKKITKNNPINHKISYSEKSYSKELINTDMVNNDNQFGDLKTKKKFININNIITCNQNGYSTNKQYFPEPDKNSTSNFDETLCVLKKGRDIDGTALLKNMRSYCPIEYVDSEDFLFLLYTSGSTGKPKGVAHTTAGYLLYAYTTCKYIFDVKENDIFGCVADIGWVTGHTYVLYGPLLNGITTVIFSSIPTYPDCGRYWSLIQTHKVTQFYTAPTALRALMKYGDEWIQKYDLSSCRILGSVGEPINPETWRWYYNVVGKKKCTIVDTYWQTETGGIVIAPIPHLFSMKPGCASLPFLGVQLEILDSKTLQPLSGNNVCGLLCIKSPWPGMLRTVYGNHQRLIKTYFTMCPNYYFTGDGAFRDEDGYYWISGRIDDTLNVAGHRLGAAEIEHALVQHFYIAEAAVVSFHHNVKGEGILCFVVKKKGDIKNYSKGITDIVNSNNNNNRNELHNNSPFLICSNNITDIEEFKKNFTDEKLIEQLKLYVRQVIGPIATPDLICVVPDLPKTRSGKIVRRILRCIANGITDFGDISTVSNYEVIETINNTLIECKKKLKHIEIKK
The experiment can be described thus: EnzChek assay, recombinant PfAcAS A597V. Type of experiment: biochemical, P. falciparum. Here is the method: as §1, §2

A further experiment relates to P. falciparum parasites. Put plainly: Isobologram analyses (fractional IC50 of compound combinations). Type of experiment: cell-based. As to conditions: combination with TSA.

The results in this text go back to publication PMC8878317, “Chemogenomics identifies acetyl-coenzyme A synthetase as a target for malaria treatment and prevention” (Cell Chemical Biology, 2022).

The IC50 is the concentration needed to halve the response being measured.

Turning to `CCN(CC)S(=O)(=O)c1ccc(Cl)c(C(=O)Nc2ccc3nc(C)sc3c2)c1` [MMV019721], at PfAcAS WT, the “Hill, AcAS WT” value is given as 0.85 ± 0.04 and the IC50 turned out to be 73 ± 4 nM. On PfAcAS A597V, the “Hill, AcAS A597V” value is 0.58 ± 0.05 and the IC50 came out at 6900 ± 1200 nM. The “interaction in isobologram analyses with the HDAC inhibitor TSA” value with P. falciparum parasites is given as “strongly antagonistic”.
As for `O=C(NNC(=O)c1csnn1)c1ccc(Cl)cc1` [MMV084978], on PfAcAS WT, the “Hill, AcAS WT” value turned out to be 0.85 ± 0.06 and the IC50 amounted to 370 ± 40 nM. In addition, the half-inhibitory concentration (IC50) at PfAcAS A597V was more than 100000 nM.
